Data taken from paper PMC4505686 (ACS Chemical Neuroscience, 2015).
Positions count from the first letter of the chain named.

Assays:
[1] = target: 5-HT binding protein (5-HTBP), an acetylcholine binding protein (AChBP) from Aplysia californica engineered to bind 5-HT (Aplysia californica); experiment: crystal structure; 5-HTBP at 6 mg/mL mixed with 5 mM varenicline; space group P4(1)2(1)2; 2.3 Å; one pentamer per asymmetric unit
[2] = target: T1, 5-HT3 receptor (5-HT3A) (Homo sapiens, UniProt P46098, Y89A); experiment: membrane potential dye fluorescence, FlexStation, transfected HEK293 cells; type: cell-based; details: read-out: varenicline EC50
T1 construct: gene HTR3A; full-length cDNA in pcDNA3.1, transiently expressed in HEK293 cells; homopentamer (also in Xenopus oocytes)
T1 sequence (P46098 24-478 Y89A): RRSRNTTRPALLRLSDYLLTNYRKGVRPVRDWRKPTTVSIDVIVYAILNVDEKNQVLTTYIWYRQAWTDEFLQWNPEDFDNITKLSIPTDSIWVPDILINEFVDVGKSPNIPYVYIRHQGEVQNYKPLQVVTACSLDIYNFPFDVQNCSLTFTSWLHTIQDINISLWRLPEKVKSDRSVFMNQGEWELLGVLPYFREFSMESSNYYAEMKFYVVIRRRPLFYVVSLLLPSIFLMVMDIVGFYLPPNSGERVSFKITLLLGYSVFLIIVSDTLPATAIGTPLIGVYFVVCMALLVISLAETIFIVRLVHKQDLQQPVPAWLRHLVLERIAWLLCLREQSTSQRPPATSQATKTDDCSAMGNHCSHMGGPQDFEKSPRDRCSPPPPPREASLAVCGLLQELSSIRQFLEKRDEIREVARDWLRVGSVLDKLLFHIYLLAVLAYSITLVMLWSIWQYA

[3] = target: T2, 5-HT3 receptor (5-HT3A) (Homo sapiens, UniProt P46098, W85Y); experiment: as above; type: cell-based; details: read-out: varenicline EC50
T2 construct: gene HTR3A; full-length cDNA in pcDNA3.1, transiently expressed in HEK293 cells; homopentamer (also in Xenopus oocytes)
T2 sequence (P46098 24-478 W85Y): T1 sequence (P46098 24-478 Y89A) with W62Y, A66Y

[4] = target: T3, 5-HT3 receptor (5-HT3A) (Homo sapiens, UniProt P46098, Y148A); experiment: as above; type: cell-based; details: read-out: varenicline EC50
T3 construct: gene HTR3A; full-length cDNA in pcDNA3.1, transiently expressed in HEK293 cells; homopentamer (also in Xenopus oocytes)
T3 sequence (P46098 24-478 Y148A): T1 sequence (P46098 24-478 Y89A) with A66Y, Y125A

[5] = target: T4, 5-HT3 receptor (5-HT3A) (Homo sapiens, UniProt P46098); experiment: as above; type: cell-based; details: read-out: varenicline EC50
T4 construct: gene HTR3A; full-length cDNA in pcDNA3.1, transiently expressed in HEK293 cells; homopentamer (also in Xenopus oocytes)
T4 sequence (P46098 24-478): T1 sequence (P46098 24-478 Y89A) with A66Y

[6] = target: T5, 5-HT3 receptor (5-HT3A) (Homo sapiens, UniProt P46098, N123Q); experiment: as above; type: cell-based; details: read-out: varenicline EC50
T5 construct: gene HTR3A; full-length cDNA in pcDNA3.1, transiently expressed in HEK293 cells; homopentamer (also in Xenopus oocytes)
T5 sequence (P46098 24-478 N123Q): T1 sequence (P46098 24-478 Y89A) with A66Y, N100Q

[7] = target: T6, 5-HT3 receptor (5-HT3A) (Homo sapiens, UniProt P46098, W178Y); experiment: as above; type: cell-based; details: read-out: varenicline EC50
T6 construct: gene HTR3A; full-length cDNA in pcDNA3.1, transiently expressed in HEK293 cells; homopentamer (also in Xenopus oocytes)
T6 sequence (P46098 24-478 W178Y): T1 sequence (P46098 24-478 Y89A) with A66Y, W155Y

[8] = target: 5-HTBP (Aplysia californica, UniProt Q8WSF8, Q74R/S111E/V159L/K160T); experiment: X-ray crystal structure, […] Å; type: binding; details: co-crystallised, 5 mM varenicline (tartrate) with 6 mg/mL protein; orthosteric site, all five sites
Sequence of 5-HTBP (Q8WSF8 entry or part of it Q74R/S111E/V159L/K160T): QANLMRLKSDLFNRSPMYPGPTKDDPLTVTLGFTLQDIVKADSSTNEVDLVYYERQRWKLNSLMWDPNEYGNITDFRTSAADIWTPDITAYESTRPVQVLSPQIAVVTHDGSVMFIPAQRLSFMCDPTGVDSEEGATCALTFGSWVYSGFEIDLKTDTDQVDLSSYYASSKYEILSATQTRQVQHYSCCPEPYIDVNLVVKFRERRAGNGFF

stoichiometry N [1] | Molecule | EC50 [2] [µM] | EC50 [3] [µM] | EC50 [4] [µM] | EC50 [5] [µM] | EC50 [6] [µM] | EC50 [7] [µM] | X-ray crystal structure, 2.3 Å [8]
5 | 5-HT binding protein (5-HTBP), an acetylcholine binding protein (AChBP) from Aplysia californica engineered to bind 5-HT (natural protein) | – | – | – | – | – | – | –
– | c1cnc2cc3c(cc2n1)C1CNCC3C1 [varenicline] | 0.13 | 2.9 | 9.4 | 0.42 | 26 | 38 | three-dimensional structure of 5-HTBP in complex with varenicline
